# US12404283B2, “c-MYC mRNA translation modulators and uses thereof in the treatment of cancer” (Anima Biotech Inc., priority 2022, dated 2025)
# Structures can show the parent of a compound that is named as a salt.
# Tested on: c-Myc
# Experiment: c-Myc immunofluorescence assay
# Type: cell-based, human
# Conditions: A549 cells, 24 hours treatment, anti-c-Myc immunofluorescence
# Summary of the method: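 A549 cells grown 48 h, exposed 24 h to rising compound concentrations, then fixed, permeabilised and stained for c-Myc plus DAPI. Nuclear-segmented c-Myc fluorescence quantified by high-content imaging at 20×; EC50 from logistic dose–response fits.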
row,Compound,Myc Efficacy (−LogEC50)
1,"O=C(NCCCN1CCC(F)CC1)c1ccc2c(c1)sc1nc(-c3c(F)cc(C4CCCN4)cc3C3CC3)cn12 (centres unmarked) [compound 475, 2-(2-cyclopropyl-6-fluoro-4-(pyrrolidin-2-yl)phenyl)-N-(3-(4-fluoropiperidin-1-yl)propyl)benzo[d]imidazo[2,1-b]thiazole-7-carboxamide]",++ (++ ≥5 and <6)
2,"CCN(CC)CCCNC(=O)c1ccc2c(c1)sc1nc(-c3ccc(NC)cc3)cn12 [compound 164, N-(3-(diethylamino)propyl)-2-(4-(methylamino)phenyl)benzo [d]imidazo[2,1-b]thiazole-7-carboxamide]",+++ (+++ ≥6)
3,"CCN(CC)CCCNC(=O)c1ccc2c(c1)sc1nc(-c3ccc(C(NC)C(F)(F)F)cc3)cn12 (centres unmarked) [compound 218, N-(3-(diethylamino)propyl)-2-(4-(2,2,2-trifluoro-1-(methylamino)ethyl)phenyl) benzo[d]imidazo[2,1-b]thiazole-7-carboxamide]",++ (++ ≥5 and <6)
4,"CNC(=O)c1ccc(-c2nc3sc4cc(C(=O)NCCCN5CCCCC5)ccc4n3n2)c(F)c1 [compound 386, 2-(2-fluoro-4-(methylcarbamoyl)phenyl)-N-(3-(piperidin-1-yl)propyl)benzo[4,5]thiazolo [3,2-b][1,2,4]triazole-6-carboxamide]",+++ (+++ ≥6)
5,"CCN(CC)CCCNC(=O)c1ccc2c(c1)sc1nc(-c3ccc(N4CCCC4=O)cc3)cn12 [compound 179, N-(3-(diethylamino)propyl)-2-(4-(2-oxopyrrolidin-1-yl)phenyl)benzo[d]imidazo [2,1-b]thiazole-7-carboxamide]",+ (+ >3 and <5)
6,"CCOc1ccc(-c2cn3c(n2)sc2cc(C(=O)N4CCCCCC4)ccc23)cc1 [compound 106, azepan-1-yl(2-(4-ethoxyphenyl)benzo[d]imidazo[2,1-b]thiazol-7-yl)methanone]",+ (+ >3 and <5)
7,"CCN(CC)CCCC(=O)Nc1ccc2c(c1)sc1nc(-c3cccc(C)c3)cn12 [compound 266, 4-(diethylamino)-N-(2-(m-tolyl)benzo[d]imidazo[2,1-b]thiazol-7-yl)butanamide]",+ (+ >3 and <5)
8,"O=C(NCCCN1CCC(F)CC1)c1ccc2c(c1)sc1nc(-c3cc4c(cc3F)CCN4)cn12 [compound 601, 2-(5-fluoroindolin-6-yl)-N-(3-(4-fluoropiperidin-1-yl)propyl)benzo[d]imidazo[2,1-b]thiazole-7-carboxamide]",+++ (+++ ≥6)
9,O=C(NCCCN1CCC(F)CC1)c1ccc2c(c1)sc1nc(-c3ccc(C4(O)COC4)cc3F)cn12 [compound 425],+++ (+++ ≥6)
10,"CNC(=O)c1ccc(-c2nc3sc4cc(C(=O)NCCCN5CCCCC5)ccc4n3n2)cc1 [compound 319, 2-(4-(methylcarbamoyl)phenyl)-N-(3-(piperidin-1-yl)propyl)benzo[4,5]thiazolo [3,2-b][1,2,4]triazole-6-carboxamide]",++ (++ ≥5 and <6)
11,"CO[C@H]1CN[C@@H](c2ccc(-c3cn4c(n3)sc3cc(C(=O)NCCCN5CCC(F)CC5)ccc34)c(F)c2)C1 (relative stereo) [Compound 523, 2-(2-fluoro-4-((cis)-4-methoxypyrrolidin-2-yl)phenyl)-N-(3-(4-fluoropiperidin-1-yl)propyl)benzo[d]imidazo[2,1-b]thiazole-7-carboxamide]",+++ (+++ ≥6)
12,"O=C(NC1CCCOC1)c1ccc2c(c1)sc1nc(-c3ccc(C4CCCN4)cc3F)cn12 (centres unmarked) [Compound 525, 2-(2-fluoro-4-(pyrrolidin-2-yl)phenyl)-N-(tetrahydro-2H-pyran-3-yl)benzo[d]imidazo[2,1-b]thiazole-7-carboxamide]",+++ (+++ ≥6)
13,"CNC(=O)c1ccc(-c2cn3c(n2)sc2cc(C(=O)NCC4CCCO4)ccc23)cc1 (centres unmarked) [compound 204, 2-(4-(methylcarbamoyl)phenyl)-N-((tetrahydrofuran-2-yl)methyl)benzo[d]imidazo [2,1-b]thiazole-7-carboxamide]",+ (+ >3 and <5)
14,"Cc1c(-c2ccc([C@H]3CCCN3)cc2F)nc2sc3cc(C(=O)NCCCN4CCC(F)CC4)ccc3n12 [Compound 464R, (R)-2-(2-fluoro-4-(pyrrolidin-2-yl)phenyl)-N-(3-(4-fluoropiperidin-1-yl)propyl)-3-methylbenzo[d]imidazo[2,1-b]thiazole-7-carboxamide dihydrochloride]",+++ (+++ ≥6)
15,"NC(=O)c1cc2sc3nc(-c4ccc(C5CCCN5)cc4F)cn3c2cn1 (centres unmarked) [Compound 514, 2-(2-fluoro-4-(pyrrolidin-2-yl)phenyl)imidazo[2′,1′:2,3]thiazolo[4,5-c]pyridine-7-carboxamide]",+++ (+++ ≥6)
16,"CCNCCCNC(=O)c1ccc2c(c1)sc1nc(-c3ccc(C(=O)NC)cc3F)cn12 [compound 362, N-(3-(ethylamino)propyl)-2-(2-fluoro-4-(methylcarbamoyl)phenyl) benzo[d]limidazo[2,1-b]thiazole-7-carboxamide]",++ (++ ≥5 and <6)
17,"O=C(NCCCN1CCCCC1)c1ccc2c(c1)sc1nc(-c3ccccc3)cn12 [compound 101, 2-phenyl-N-(3-(piperidin-1-yl)propyl)benzo[d]imidazo[2,1-b]thiazole-7-carboxamide]",+++ (+++ ≥6)
18,"CNC(=O)c1cc2sc3nc(-c4ccc(C5CCCN5)cc4F)cn3c2cn1 (centres unmarked) [Compound 515, 2-(2-fluoro-4-(pyrrolidin-2-yl)phenyl)-N-methylimidazo[2′,1′:2,3]thiazolo[4,5-c]pyridine-7-carboxamide]",+++ (+++ ≥6)
19,"CCN(CC)CCCNC(=O)c1ccc2c(c1)sc1nc(-c3ccc(N4CCOCC4)cc3)cn12 [compound 307, N-(3-(diethylamino)propyl)-2-(4-morpholinophenyl)benzo[d] imidazo[2,1-b]thiazole-7-carboxamide]",++ (++ ≥5 and <6)
20,"O=C(NCCCN1CCC(F)CC1)c1ccc2c(c1)sc1nc(-c3ccc([C@@H]4CCNC4)cc3F)cn12 [Compound 434S, (S)-2-(2-fluoro-4-(pyrrolidin-3-yl)phenyl)-N-(3-(4-fluoropiperidin-1-yl)propyl)benzo[d]imidazo[2,1-b]thiazole-7-carboxamide]",+++ (+++ ≥6)
21,"CN1CC(NC(=O)c2ccc3c(c2)sc2nc(-c4ccc(C5CCCN5)cc4F)cn23)C1 (centres unmarked) [Compound 506, 2-(2-fluoro-4-(pyrrolidin-2-yl)phenyl)-N-(1-methylazetidin-3-yl)benzo[d]imidazo[2,1-b]thiazole-7-carboxamide]",+++ (+++ ≥6)
22,"CCN(CC)CCCNC(=O)c1ccc2c(c1)sc1nc(-c3cccc(C)c3F)cn12 [compound 143, N-(3-(diethylamino)propyl)-2-(2-fluoro-3-methylphenyl)benzo[d] imidazo[2,1-b]thiazole-7-carboxamide]",++ (++ ≥5 and <6)
23,"CCN(CC)CCCNC(=O)c1ccc2c(c1)sc1nc(-c3ccc(CN4CCCC4)cc3)cn12 [compound 289, N-(3-(diethylamino)propyl)-2-(4-(pyrrolidin-1-ylmethyl)phenyl)benzo[d] imidazo[2,1-b]thiazole-7-carboxamide]",+++ (+++ ≥6)
